In PMC9291816 (Clinical Pharmacology and Therapeutics, 2021):

Legend:
CYP3A [1] = conditions: both, human, plasma, po, 2 mg, probe midazolam
[2] = cited from earlier work
[3] = Clinical DDI study in healthy adults; assay type: in vivo, human; conditions: for AUC(0-t) / Cmax: both, human, plasma, oral
infants with Type 1 SMA = conditions: cited from earlier work
[4] = PBPK model; cited from earlier work
CYP3A [5] = test system: CYP3A; set-up: species or system human; conditions: refined to recover observed midazolam AUCR; 1/18 of the in vitro k inact

SMILES | AUC(0-t) (CYP3A [1]) [ng·h/mL] | Cmax (CYP3A [1]) [ng/mL] | UGT1A4 contribution to clearance ([2]; adults) | FG (intestinal availability) [2] | tolerability ([3]; 14 days, alone and coadministered with midazolam, healthy adults) | AUC(0-t) ([3]; 5 mg) [ng·h/mL] | Cmax ([3]; 5 mg) [ng/mL] | AUC(0-t) ([3]; 8 mg) [ng·h/mL] | Cmax ([3]; 8 mg) [ng/mL] | increase in the SMN protein (infants with Type 1 SMA) | hepatic intrinsic CL via CYP3A share of clearance [4] [%] | hepatic intrinsic CL via FMO3 share of clearance [4] [%] | renal CL (CLR) share of clearance [4] [%] | in vivo k inact (CYP3A [5])
Cc1ncc2n1-c1ccc(Cl)cc1C(c1ccccc1F)=NC2 [midazolam] | 19.9 | 7.65 | 1–2% | 0.55 |  |  |  |  |  |  |  |  |  | 
Cc1cn2nc(-c3cc(=O)n4cc(N5CCNC6(CC6)C5)ccc4n3)cc(C)c2n1 [risdiplam, Risdiplam] |  |  |  |  | well tolerated | 1250 | 78.6 | 1730 | 113 | approximately twofold | 20 | 75 | 5 | in vivo k inact ^e = 0.22/hour
